# Assay results: PMC10964925 (European journal of medicinal chemistry, 2024)
# Assays:
# [1] = target: FimHFL (full length FimH) (Escherichia coli, UniProt P08191); experiment: competitive fluorescence polarization assay; format: binding
# [2] = ligand solubility in assay buffer; format: physicochemical; conditions: for solubility: assay buffer with 5% or 10% DMSO; for highest achievable ligand concentration: assay buffer, final DMSO concentration 10%
# [3] = target: T1, FimHLD (isolated lectin domain of FimH) (Escherichia coli, UniProt P08191); experiment: competitive fluorescence polarization assay; format: binding; conditions: for factor of affinity improvement from 1: aglycone optimization
# [4] = target: T1, FimHLD (isolated lectin domain of FimH); conditions: read-out: KD FimHLD; competitive FPA; mannosides; ref [18] and [19]; cited from earlier work
# FimHLD = FimHLD (Escherichia coli, UniProt P08191); experiment: isothermal titration calorimetry; format: binding; conditions: ITC KD versus FPA KD
# Chain of FimHLD (P08191 22-179): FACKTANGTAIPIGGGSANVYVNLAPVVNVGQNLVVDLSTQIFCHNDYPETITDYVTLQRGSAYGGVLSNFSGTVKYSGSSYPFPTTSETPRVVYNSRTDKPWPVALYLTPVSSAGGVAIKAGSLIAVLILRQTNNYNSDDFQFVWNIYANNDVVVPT
# T1 sequence (P08191 22-179): as above
# Chain of FimHFL (full length FimH) (P08191 22-300, other chains not shown): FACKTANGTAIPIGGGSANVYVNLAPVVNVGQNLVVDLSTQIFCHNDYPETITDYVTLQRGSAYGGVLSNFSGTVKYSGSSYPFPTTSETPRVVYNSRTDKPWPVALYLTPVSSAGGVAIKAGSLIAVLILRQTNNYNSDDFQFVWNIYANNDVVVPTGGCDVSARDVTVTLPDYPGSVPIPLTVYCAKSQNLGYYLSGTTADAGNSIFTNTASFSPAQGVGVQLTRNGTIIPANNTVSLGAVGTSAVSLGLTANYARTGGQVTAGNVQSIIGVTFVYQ
smiles,measurement,setting,value
"N#Cc1ccc(-c2ccc(CO[C@H]3CO[C@H](CO)[C@@H](O)[C@H](O)[C@@H]3O)cc2)cc1 [7a, 2-O-(4-[4-cyanophenyl]benzyl)-1,6-anhydro-D-glycero-D-galactitol]",increase in binding affinity to FimHFL,[1]; para-cyano group on outer aromatic ring versus unsubstituted 7c,approximately 2 fold
same,solubility,[2],insufficient solubility
"N#Cc1ccc(-c2ccc(O[C@H]3CO[C@H](CO)[C@@H](O)[C@H](O)[C@@H]3O)c(Cl)c2)cc1 [8a, 2-O-[4-(4’-cyanophenyl)-2-chlorophenyl]-1,6-anhydro-D-glycero-D-galactitol]",factor of affinity gain by ortho-chloro modification,"[1]; FimHFL, FPA, versus 6",6
same,solubility,[2],low solubility
same,highest achievable ligand concentration,[2],≤ 500 µM
same,factor of affinity improvement compared to 6,"[3]; FPA, ortho-chloro modification",2.6
"N#Cc1ccc(-c2ccc(O[C@H]3O[C@H](CO)[C@@H](O)[C@H](O)[C@@H]3O)c(Cl)c2)cc1 [compound 30, reference compound]",factor of affinity improvement comparing 2 to 30,"[3]; mannoside ligands, from literature KD values",56.6
NC(=O)c1ccc(-c2ccc(O[C@H]3O[C@H](CO)[C@@H](O)[C@H](O)[C@@H]3O)cc2)cc1 [compound 28],Kd,[4],2.8 nM
"N#Cc1ccc(-c2ccc(O[C@H]3CO[C@H](CO)[C@@H](O)[C@H](O)[C@@H]3O)cc2)cc1 [compound 6, 2-O-(4-[4-cyanophenyl]phenyl)-1,6-anhydro-D-glycero-D-galactitol]",ITC binding affinity lower than recorded in the FPA assay,FimHLD,approx. 3 fold
same,solubility,[2],low solubility
same,highest achievable ligand concentration,[2],≤ 500 µM
same,factor of affinity increase compared to 7a,[3]; FPA,6
"OC[C@H]1OC[C@H](OCc2ccccc2)[C@@H](O)[C@@H](O)[C@@H]1O [compound 4, 2-O-benzyl-1,6-anhydro-D-glycero-D-galactitol]",factor of loss in binding affinity compared to phenylpropyl analog 5,[3]; FPA,10
N#Cc1ccc(-c2ccc(O[C@H]3O[C@H](CO)[C@@H](O)[C@H](O)[C@@H]3O)cc2)cc1 [compound 27],Kd,[4],2 nM
"OC[C@H]1OC[C@H](Oc2ccc(-c3ccccc3)cc2Cl)[C@@H](O)[C@@H](O)[C@@H]1O [8c, 2-O-[4-phenyl-2-chlorophenyl]-1,6-anhydro-D-glycero-D-galactitol]",solubility,[2],low solubility
same,highest achievable ligand concentration,[2],≤ 500 µM
same,factor of affinity improvement from 1,[3]; FPA,32
"N#Cc1ccc(-c2ccc(CO[C@H]3CO[C@H](CO)[C@@H](O)[C@H](O)[C@@H]3O)c(Cl)c2)cc1 [9a, 2-O-(2-chloro-4-[4-cyanophenyl]benzyl)-1,6-anhydro-D-glycero-D-galactitol]",factor of affinity improvement from 1,[3]; FPA,1.5
